We go through six compounds from patent publication US5892029A, “3-hydroxy-2(1H)-pyridinone chelating agents” (priority 1997, dated 1999).

The format of data set [1] is in vivo, mice. To be noted: for body weight / kidney weight / plasma urea N: mean ± SD. The protocol: The test of acute toxicity of these novel ligands was carried out as follows. […] The ligand was dissolved in 0.5 to 1.0 ml of saline at pH 7 to 8. After a period of observation, the mice were killed, selected tissues were removed and fixed for histopathological examination,and unusual findings at autopsy were recorded.

Data set [2] is described as follows: Promoting excretion of 238Pu(IV) in mice by injected ligands (Table 3). Format: in vivo. To be noted: 30 μmol/kg i.p. The text has this: (§1) Animal studies were completed using methods detailed in Radiation Protection Dosimetry, 1994, 53, 305: P. W. Durbin et al., "In Vivo Chelation of Am(III), Pu(IV), Np(V) and U(VI) in Mice by TREN-(Me-3,2-HOPO)"; Radiation Protection Dosimetry, 1989, 17, 351: P. W. Durbin et al., "Removal of ^238 Pu(IV) from Mice by Polycatechoylate, -Hydroxamate or -Hydroxypyridinonate Ligands"; Radiation Research, 1984, 99, 85: P. W. Durbin et al., "Specific Sequestering Agents for the Actinides . . . "; Radiation Research, 1984, 99, 106: P. W. Durbin et al., "Removal of Pu and Am from Beagles and Mice . . . "; Radiation Research, 1980, 81, 170: R. D. Lloyd et al., and P. W. Durbin et al., "Specific Sequestering Agents for the Actinides . . . ". The foregoing articles are hereby incorporated by reference.
(§2) Radionuclides used in the animal studies came from a variety of sources. The ^238 Pu(IV) citrate and ^241 Am(III) citrate solutions were prepared for animal injection by 8- to 10-fold dilution with 0.14M NaC1 (pH 4) of concentrated stock solutions (0.08M sodium citrate buffer) that had been held in frozen storage at Lawrence Berkeley Laboratory (hereinafter LBL) for several years. [The ^238 Pu(IV) was originally obtained from D. R. Atherton at the University of Utah Radiobiology Laboratory, Salt Lake City. The ^241 Am(III) solution had been obtained many years earlier from the LBL Actinide Chemistry group.]
The novel chelating agents of the present invention were tested for their effectiveness in promoting excretion of ^238 Pu(IV) in mice by injected ligands as follows. Mice, in groups of five, each received an intravenous injection of 1850 Bq^238 Pu(IV) in 0.2 mL of citrate buffer. One hour later, 30 μmol/kg of ligand was injected intraperitoneally in 0.5 mL of saline. The mice were killed 24 hours after the Pu injection, frozen, and dissected after partial thawing. The ^238 Pu in skeleton, soft tissues, and separated excreta was determined by counting the ^234 U L x-rays. […]

Data set [3] can be described thus: Promoting excretion of U(VI) in mice by injected ligands (Table 5). To be noted: 30 μmol/kg i.p. at 3 to 5 min after actinide i.v. Format: in vivo.
Excerpt: as §1
The ^232 U was obtained from the Isotope Products Laboratory, Burbank, Calif., and ^234,235 U was obtained as U metal from long-held LBL storage. The two U sources were combined and dissolved in 6N HNO3, dried, and redissolved in 0.1N HCl. The daughter radioactivities were removed by elution from a Dowex-50X4 column (22 cm length, 0.7 cm diameter, 1.5 mL min^-1 flow rate) with 3.2N HCl. The U fractions (previously identified by a trial run with ^234,235 U alone) were combined, dried, and redissolved in 0.14M NaCl at pH 5.5.
(§3) One of the novel chelating agents of the present invention, TREN-Me-3,2-HOPO, was also tested for effectiveness in promoting excretion of ^241 AM(III), ^237 Np(V), and ^232 U(VI) by injection into mice, as follows: Mice, in groups of five, each received an intravenous injection of (a) 1100 Bq of ^241 Am(III) in 0.2 mL of citrate buffer, (b) 150 Bq of ^232 UO2 Cl2 plus 3.6 mg of ^235 UO2 Cl2 in 0.2 mL of saline, or (c) 200 Bq of ^237 NpO2 Cl ([…] of ^237 NPO2 Cl) in 0.2 mL of saline. Three to five minutes later, 30 μmol/kg of TREN-Me-3,2-HOPO was injected intraperitoneally in 0.5 mL of saline. The mice were killed 24 hours after the actinide injection, frozen, and dissected after partial thawing. The skeleton, soft tissues, and separated excreta were radioanalyzed by counting the ^241 Am gamma rays, or the alpha particles emitted by ^237 Np or ^232 U (and its ingrowing daughters). Removal of those actinides from mice by injected TREN-Me-3,2-HOPO is summarized in Table 5, which also includes data for mice similarly treated with CaNa3 -DTPA and for actinide-injected controls. […] The structure of Am(III)-TREN-Me-3,2-HOPO is considered to resemble that of the Gd(III) complexes (see Example 20). Complexation of the fraction of Np(V) that is reduced in vivo to Np(IV) is considered to resemble that of Pu(IV). Complexation of U(VI) is considered to take place through binding to UO2^2+.
(§4) ^a Ligands (30 μmol/kg) i.p. at 3 to 5 min after actinide i.v.;

For data set [4] the following is noted: 30 μmol/kg i.p. at 1 h; reported previously (footnote e); cited from earlier work.
Data set [5] can be described thus: Promoting excretion of 241Am(III) in mice by injected ligands (Table 5). To be noted: 30 μmol/kg i.p. at 3 to 5 min after actinide i.v. Format: in vivo.
Excerpt: as §1, §2, §3, §4

Data set [6] is described as follows: Promoting excretion of 237Np(V) in mice by injected ligands (Table 5). Format: in vivo. To be noted: 30 μmol/kg i.p. at 3 to 5 min after actinide i.v.
Excerpt: as §1
The ^237 Np(V) was obtained from J. Bucher of the LBL Actinide Chemistry group as NpO2 Cl in 0.1M HCl. It was diluted to the desired radioactivity concentration in 0.14M NaCl and the pH was adjusted to about 4.5 with NaOH just before use.
as §3, §4

Data set [7] is described as follows: Gd3+ complex stability in aqueous solution. Format: binding.
Setting [8] is: protocol I: 100 μmol/kg × 10 daily i.p., 11 d.
The mark [9] stands for this setting: protocol I: 100 μmol/kg × 10 daily i.p., 21 d.
The mark [10] stands for this setting: protocol II: 500 μmol/kg × 2 in 8 h i.p., 11 d.

“Also recorded” adds a separate entry of the source. Like-named read-outs stand apart in the source and are kept apart here. Bounds are passed on as bounds.

Turning to `Cn1ccc(C(=O)NCCCCNC(=O)c2ccn(C)c(=O)c2O)c(O)c1=O` [4-LI-Me-3,2-HOPO, 1,4-bis[(3-hydroxy-1-methyl-2-oxo-1,2-dihydro-pyridin-4-yl)carboxamido]butane], in data set [1] (protocol IB: 100 μmol/kg, 5 d), the body weight was determined as 85 ± 8 percent control, the kidney weight was 190 ± 63 percent control and the “plasma urea N” value is recorded as more than 2000 percent control. In data set [1] (protocol IB: 100 μmol/kg, 5 d, of 3 mice), this compound gave a no. of survivors of 0. Further, the “effectiveness of Pu removal, injected (in words)” value in data set [2] is “as effective or more effective than the hexadentate and octadentate chelating agents”.
Regarding `Cn1ccc(C(=O)NCCCCCNC(=O)c2ccn(C)c(=O)c2O)c(O)c1=O` [5-LI-Me-3,2-HOPO, 1,5-bis[(3-hydroxy-1-methyl-2-oxo-1,2-dihydro-pyridin-4-yl)carboxamido]pentane], in data set [1] (mouse, in vivo), the “toxicity / mortality (in words)” value is listed as “low toxicity”. The body weight in data set [1] (setting [8]) came to 102 ± 5 percent control; in data set [1] (setting [9]) it was 102 ± 5 percent control; in data set [1] (setting [10]) it was 99 ± 3 percent control. In addition, the kidney weight in data set [1] (setting [8]) was 109 ± 14 percent control; in data set [1] (setting [9]) it was 100 ± 4 percent control; in data set [1] (setting [10]) it was 109 ± 9 percent control. The “plasma urea N” value in data set [1] (setting [8]) is 89 ± 1 percent control; in data set [1] (setting [9]), 101 ± 2 percent control; in data set [1] (setting [10]) it was 98 ± 18 percent control. The no. of survivors amounted to 5 in data set [1] (protocol I: 100 μmol/kg × 10 daily i.p., 11 d, of 5 mice); 5 in data set [1] (protocol I: 100 μmol/kg × 10 daily i.p., 21 d, of 5 mice); 5 in data set [1] (protocol II: 500 μmol/kg × 2 in 8 h i.p., 11 d, of 5 (5-LI) or 10 (5-LI-O) mice). In data set [2], the “effectiveness of Pu removal, injected (in words)” value was “as effective or more effective than the hexadentate and octadentate chelating agents”.
For `O=C(O)CN(CCN(CC(=O)O)CC(=O)O)CCN(CC(=O)O)CC(=O)O` [CaNa3 -DTPA, reference compound], in data set [3], the “U(VI) in kidneys at 24 h” value was 17 ± 2.8% of injected actinide, the “U(VI) in liver at 24 h” value is reported as 1.0% of injected actinide, the “U(VI) in skeleton at 24 h” value was 19 ± 3.0% of injected actinide and the “U(VI) in whole body at 24 h” value was 38 ± 0.7% of injected actinide. Besides, the “U(VI) combined excreta” value in data set [3] (combined excreta (footnote f)) is given as 62% of injected actinide. Moreover, in data set [4], the “238Pu excreta: feces and GI contents” value was 5.1% of injected ^238 Pu; the “238Pu excreta: urine 0-24 h” value was 61% of injected ^238 Pu; the “238Pu in kidneys at 24 h” value is on record as 1.1% of injected ^238 Pu; the “238Pu in liver at 24 h” value is 17 ± 4.0% of injected ^238 Pu. Also, in data set [4], the “238Pu in skeleton at 24 h” value was 12 ± 2.3% of injected ^238 Pu, the “238Pu in soft tissue at 24 h” value is 3.5 ± 1.6% of injected ^238 Pu and the “238Pu in whole body at 24 h” value was 33 ± 6.6% of injected ^238 Pu. Further, in data set [5], the “Am(III) in liver at 24 h” value was 13 ± 1.5% of injected actinide, the “Am(III) in skeleton at 24 h” value was 8.5 ± 0.9% of injected actinide, the “Am(III) in soft tissue at 24 h” value is reported as 1.9 ± 0.3% of injected actinide and the “Am(III) in whole body at 24 h” value is 24 ± 1.3% of injected actinide. Also, in data set [5] (pooled), the “Am(III) excreta: feces and GI contents” value was 8.0% of injected actinide; the “Am(III) excreta: urine 0-24 h” value is reported as 68% of injected actinide; the “Am(III) in kidneys at 24 h” value was 0.4% of injected actinide. In data set [6], the “Np(V) in liver at 24 h” value is 14 ± 5.7% of injected actinide, the “Np(V) in skeleton at 24 h” value is reported as 40 ± 4.4% of injected actinide, the “Np(V) in soft tissue at 24 h” value is reported as 3.5 ± 0.9% of injected actinide and the “Np(V) in whole body at 24 h” value is on record as 58 ± 8.0% of injected actinide. Moreover, in data set [6] (pooled), the “Np(V) excreta: feces and GI contents” value is reported as 1.5% of injected actinide; the “Np(V) excreta: urine 0-24 h” value is on record as 40% of injected actinide; the “Np(V) in kidneys at 24 h” value is on record as 1.3% of injected actinide.
Take `CC(=O)N(O)CCCCCNC(=O)CCC(=O)N(O)CCCCCNC(=O)CCC(=O)N(O)CCCCCNC(=O)c1ccn(C)c(=O)c1O` [DFO-Me-3,2-HOPO]: in data set [4], the “238Pu excreta: feces and GI contents” value is 26.4% of injected ^238 Pu; the “238Pu excreta: urine 0-24 h” value is reported as 21% of injected ^238 Pu; the “238Pu in kidneys at 24 h” value is given as 3.0% of injected ^238 Pu; the “238Pu in liver at 24 h” value is on record as 13 ± 3.5% of injected ^238 Pu. Moreover, in data set [4], the “238Pu in skeleton at 24 h” value is recorded as 17 ± 2.4% of injected ^238 Pu, the “238Pu in soft tissue at 24 h” value was 19 ± 3.0% of injected ^238 Pu and the “238Pu in whole body at 24 h” value is given as 53 ± 3.4% of injected ^238 Pu.
As for `O=C(NCc1cc(CNC(=O)c2cccc(=O)n2O)cc(CNC(=O)c2cccc(=O)n2O)c1)c1cccc(=O)n1O` [ME-(1,2-HOPO)], in data set [4], the “238Pu excreta: feces and GI contents” value is given as 43% of injected ^238 Pu; the “238Pu excreta: urine 0-24 h” value is 9.6% of injected ^238 Pu; the “238Pu in kidneys at 24 h” value is 1.8% of injected ^238 Pu; the “238Pu in liver at 24 h” value is given as 18 ± 6.3% of injected ^238 Pu. Also, in data set [4], the “238Pu in skeleton at 24 h” value is 17 ± 2.5% of injected ^238 Pu, the “238Pu in soft tissue at 24 h” value is on record as 10 ± 1.8% of injected ^238 Pu and the “238Pu in whole body at 24 h” value is 47 ± 9.4% of injected ^238 Pu.
As for “Gadolinium (III) Ion Complex with N,N,N,-Tris[(3-hydroxy-1-methyl-2-oxo-1,2-dihydropyridin-4-yl)carboxamidoethyl]-amine [Gd(III)-TREN-3,2-HOPO complex]”, the “pM value for Gd^3+” value in data set [7] is recorded as 19. Also, in data set [7] (aqueous solution), the “formation constant log β110” value was 20.3 and the “stability of the complex (in words)” value is reported as “very stable in aqueous solution; also recorded: substantially more stable than any of the Gd^3+ MRI agents in current clinical use”.
